Assay type in all cases: functional
In test [1] the test system is CCRF-CEM. The test is described as follows: Cytotoxicity against human CCRF-CEM cells assessed as cell viability at 10 uM after 24 hrs by MTT assay. As to conditions: read-out: Activity.
Test [2] has as its system CCRF-CEM. Kind of test: Cytotoxicity against human CCRF-CEM cells assessed as cell viability at 20 uM after 24 hrs by MTT assay. As to conditions: read-out: Activity. For orientation: Tetrazolium dyes change colour on reduction, which living cells bring about.
For test [3], the system named is CCRF-CEM. Kind of test: Cytotoxicity against human CCRF-CEM cells assessed as cell viability at 50 uM after 24 hrs by MTT assay. The following applies: read-out: Activity.
The subject of test [4] is MCF7. The test is described as follows: Cytotoxicity against human MCF7 cells assessed as cell viability at 10 uM after 24 hrs by MTT assay. As to conditions: MCF7, 24 h, read-out: Activity.
Test [5] concerns MCF7. The test is described as follows: Cytotoxicity against human MCF7 cells assessed as cell viability at 20 uM after 24 hrs by MTT assay. As to conditions: MCF7, 24 h, read-out: Activity.
The subject of test [6] is MCF7. Kind of test: Cytotoxicity against human MCF7 cells assessed as cell viability at 50 uM after 24 hrs by MTT assay. As to conditions: MCF7, 24 h, read-out: Activity.
In test [7] the test system is CCRF-CEM. The test is described as follows: Induction of apoptosis in human CCRF-CEM cells assessed as viable cells at 10 uM after 24 hrs by annexinV and propidium iodide staining based FACS analysis (reference value: 96.4 +/- 1.2%). As to conditions: read-out: Activity. For orientation: In flow cytometry, cells or beads pass a laser one at a time.
Test [8] concerns CCRF-CEM. Kind of test: Induction of apoptosis in human CCRF-CEM cells assessed as viable cells at 50 uM after 24 hrs by annexinV and propidium iodide staining based FACS analysis (reference value: 96.4 +/- 1.2%). As to conditions: read-out: Activity.
Test [9] relates to CCRF-CEM. Kind of test: Induction of apoptosis in human CCRF-CEM cells assessed as early apoptotic cells at 10 uM after 24 hrs by annexinV and propidium iodide staining based FACS analysis (reference value: 1.5 +/- 0.8%).
For test [10], the system named is CCRF-CEM. The test is described as follows: Induction of apoptosis in human CCRF-CEM cells assessed as early apoptotic cells at 50 uM after 24 hrs by annexinV and propidium iodide staining based FACS analysis (reference value: 1.5 +/- 0.8%).
Test [11] has as its system CCRF-CEM. Kind of test: Induction of apoptosis in human CCRF-CEM cells assessed as late apoptotic cells at 10 uM after 24 hrs by annexinV and propidium iodide staining based FACS analysis (reference value: 1.9 +/- 0.5%).
The subject of test [12] is CCRF-CEM. Kind of test: Induction of apoptosis in human CCRF-CEM cells assessed as late apoptotic cells at 50 uM after 24 hrs by annexinV and propidium iodide staining based FACS analysis (reference value: 1.9 +/- 0.5%).
The test system of test [13] is CCRF-CEM. The test is described as follows: Induction of apoptosis in human CCRF-CEM cells assessed as necrotic cells at 10 uM after 24 hrs by annexinV and propidium iodide staining based FACS analysis (reference value: 0.1 +/- 0.1%).
The test system of test [14] is CCRF-CEM. The test is described as follows: Induction of apoptosis in human CCRF-CEM cells assessed as necrotic cells at 50 uM after 24 hrs by annexinV and propidium iodide staining based FACS analysis (reference value: 0.1 +/- 0.1%).

Turning to `Cc1nc2c(Br)c(Br)c(Br)c(Br)c2n1CCC#N`, the results for the viability at 10 µM in [1], in test [4] and in [7] were 84%, 85% and 82%, respectively. Moreover, the viability at 20 µM in test [2] is 51%; in test [5], 74%. Besides, the values for the viability at 50 µM in [3], in test [6] and in test [8] were 2%, 15% and 6.2%, respectively. The Activity came out at 10.6% in test [9]; 69.6% in test [10]; 7.1% in [11]; 20.1% in test [12]; 0.2% in [13]; 0.9% in test [14].

In the case of `Cc1nc2c(Br)c(Br)c(Br)c(Br)c2n1CC#N`, the viability at 10 µM in test [1] came to 45%; in test [4] it was 52%; in [7], 52%. Further, the viability at 20 µM is 14% in test [2] and 36% in test [5]. Besides, the figures for the viability at 50 µM in [3], in test [6] and in test [8] were 2%, 11% and 2.4%, respectively. Besides, the Activity in test [9] stood at 28.9%; in test [10], 59.7%; in [11], 17.8%; in test [12], 33.9%; in test [13], 0.8%; in [14], 0.6%.

On to `N#CCCCCn1cnc2c(Br)c(Br)c(Br)c(Br)c21`, for which the viability at 10 µM in [1] was 98%; in test [4], 102%; in test [7], 93.6%. For the same compound, the viability at 20 µM in [2] turned out to be 70%; in [5] it was 99%. Besides, the viability at 50 µM stood at 1% in test [3], 18% in test [6] and 14.3% in test [8]. Moreover, the Activity stood at 3.2% in test [9]; 39.9% in test [10]; 3.1% in test [11]; 44.9% in test [12]; 0.1% in test [13]; 0.9% in test [14].

Take `Cc1nc2c(Br)c(Br)c(Br)c(Br)c2n1CCCCC#N`: the figures for the viability at 10 µM in test [1], in test [4] and in test [7] were 92%, 109% and 93.5%, respectively. Besides, the viability at 20 µM is 61% in test [2] and 110% in test [5]. Moreover, the values for the viability at 50 µM in test [3], in test [6] and in test [8] were 55%, 42% and 30.2%, respectively. The Activity is reported as 3.6% in test [9]; 39.9% in test [10]; 2.9% in [11]; 29.3% in test [12]; 0.1% in test [13]; 0.6% in [14].

As for `N#CCCCn1cnc2c(Br)c(Br)c(Br)c(Br)c21`, the figures for the viability at 10 µM in [1], in test [4] and in test [7] were 85%, 89% and 92.8%, respectively. Also, the viability at 20 µM in test [2] and in test [5] was 70% in each case. Moreover, the viability at 50 µM in test [3] came to 2%; in test [6], 16%; in [8], 21.5%. Further, the Activity in test [9] amounted to 3.3%; in [10], 41.1%; in test [11], 3.8%; in test [12], 33.3%; in test [13] it was 0.1%; in test [14], 2.3%.

`N#CCCn1cnc2c(Br)c(Br)c(Br)c(Br)c21`: the viability at 10 µM in test [1] is 80%; in [4] it was 81%; in [7] it was 90.6%. Moreover, the values for the viability at 20 µM in test [2] and in [5] were 44% and 72%, respectively. In addition, the viability at 50 µM in test [3] came out at 2%; in test [6] it was 23%; in test [8], 5.4%. The Activity in test [9] stood at 5.4%; in test [10], 77.2%; in test [11], 3.9%; in [12], 17%; in test [13], 0.1%; in [14] it was 0.4%.

Turning to `N#CCn1cnc2c(Br)c(Br)c(Br)c(Br)c21`, the viability at 10 µM was 63% in [1], 87% in test [4] and 76.2% in test [7]. Further, the viability at 20 µM in test [2] was 28%; in test [5] it was 65%. Moreover, the values for the viability at 50 µM in test [3], in test [6] and in [8] were 2%, 43% and 14.8%, respectively. Moreover, the Activity in test [9] was determined as 12.3%; in [10] it was 62.7%; in test [11], 8.8%; in test [12] it was 20.4%; in [13] it was 0.5%; in test [14] it was 0.8%.

With `Cc1nc2c(Br)c(Br)c(Br)c(Br)c2n1CCCC#N`, the viability at 10 µM was 68% in [1], 65% in test [4] and 82.4% in test [7]. Further, the values for the viability at 20 µM in test [2] and in [5] were 44% and 56%, respectively. For the same compound, the viability at 50 µM was found to be 1% in [3], 5% in test [6] and 3.3% in [8]. The Activity was 10.8% in [9]; 14.7% in test [10]; 6.3% in test [11]; 76.3% in [12]; 0.5% in test [13]; 5.7% in test [14].

These data come from ChEMBL document CHEMBL3751801, “Synthesis of novel polybrominated benzimidazole derivatives-potential CK2 inhibitors with anticancer and proapoptotic activity” (Bioorg Med Chem, 2016).
